Laboratory results published in paper PMC11468294, “Peptide Amphiphiles as Biodegradable Adjuvants for Efficient Retroviral Gene Delivery” (Advanced Healthcare Materials, 2023).
“Also recorded” adds a separate entry of the source. Where a SMILES comes first, the peptide text is derived from it. Where no end group is shown, it is not given here. The star is where a group is joined. Palmitoyl = CCCCCCCCCCCCCCCC(=O)*; Nonanoyl = CCCCCCCCC(=O)*

Tests used:
[1] = Microscopic aggregation (fluorescence / confocal microscopy, derived count rate); type: physicochemical; settings: fibrils preformed at 1 mg mL-1 in PBS; ThT or Proteostat stain, widefield or confocal microscopy; derived count rate > 1000 kcps as criterion
Procedure: Transmission electron microscopy (TEM) measurements, Thioflavin (ThT), zeta‐potential measurements for fibril characterization, ATR‐IR spectra acquisition and the calculation of β−sheet were prepared and conducted analogous to a previous report.^[ [20], [86] ^] […] Fibrils were defined as distinct, if no visible structures could be identified in fluorescence and brightfield microscopy. […] The derived count rate of the zeta‐potential measurement was used as information on the light scattering intensity and turbidity of the sample as a further indicator for microscopic aggregation.^[ [90] ^]
Fluorescence microscopy: 1 µL Fibrils (1 mg mL^−1) were stained with 9 µL, 50 µM ThT. 10 µL of the stained fibrils (0.1 mg mL^−1) were placed on a microscopy glass. Fluorescence microscopy measurements were performed on a Leica DMi8 microscope with 10x air objective and equipped with a Leica MC170 HD camera with a filter setting λem = 527/30 nm upon excitation at λex = 480/40 nm) and processed with the Leica LASX software.
(§1) 7 Effects of PA modifications on properties and activity
(§2) To investigate the effects of modification in the PA sequence, we created various peptide amphiphiles derived from PA1 by varying the (I) hydrophobic moiety, (II) the linkage chemistry and (III) the peptide sequence (Figure S12, SI chapter 7.1 – 7.3). The color code for sequence representation is yellow for the hydrophobic moiety, blue for cationic amino acids, red for non-polar amino acids, purple for polar uncharged amino acids, and green for anionic amino acids. To be concise, only the summarized information will be discussed, all original data for the peptides are summarized in the (Figure S26 - […]
(§3) Figure S12 Summarized overview of peptide amphiphile library in which systematic variations the original sequence […]
(§4) chemistry and (III) the peptide sequence on infectivity enhancement and degradability (see SI chapter 7.1 – 7.3).
(§5) In the following section a compound is considered infectivity enhancing if n-fold infectivity at 1.3 µM is larger than 2. A compound is considered to form µm-sized aggregates if visible particles were observed in widefield microscopy (brightfield or ThT-staining filter, objective 10x) or confocal […]
(§6) than 1000 kcps in Zeta-Potential measurements.
(§7) For the degradability only the PAs which could be stained with Proteostat (Figure S26) and were visible in microscopy (Figure S15, Figure S18, Figure S21, and Figure S22) were studied in detail. To determine […]
whether a PA is degraded or not, Proteostat stained PAs which are added to Hela cells (2 µg peptide added to 20.000 cells) and studied via confocal laser scanning microscopy. […]
In the following, we will distinguish between three aggregation types for fibrillar structures: Fibrils which were not aggregating (below resolution limit of the microscope, approx. 650 nm), moderately aggregating (< 50 µm2) and aggregating to large particles (> 50 µm 2).
7.1 Effects of hydrophobic moiety exchange on properties and activity
To investigate the effects of varying hydrophobic moieties on assembly, aggregation and activity , we

[2] = test system: HeLa cells; type: in vitro ADME; settings: HeLa cells; for degradability by cells (in words): 2 µg peptide added to 20,000 cells, d0 (30 min) vs d3, degradable if number and size of aggregates are reduced after 3 days; for degradability (percentual degradation by aggregate number): 2 µg peptide (10 µg mL-1) added to 20,000 cells, 37°C, aggregates > 10 µm2 in 1008 µm × 1008 µm at d3 (72 h) vs d0 (30 min), Proteostat, confocal, three technical replicates
Procedure: Confocal laser scanning microscopy and degradation study with PA library and HeLa cells: Confocal laser scanning microscopy studies were performed for the visualization of the cell‐PA interaction. HeLa cells were seeded one day prior to conducting the assay (20000/well) in an 8‐well IBIDI slide. 2 µL of the preformed peptide fibrils (1 mg mL^−1) were diluted with 2 µL Proteostat (Enzo Life Science, 1 µL stock in 99 µL PBS) and incubated for 10 min and further diluted with medium to receive a final peptide concentration of 10 µg mL^−1. The nucleus of the HeLa cells was stained with Hoechst 33 342 (NucBlue, Thermo Fisher Scientific). The peptide solution mixture was transferred to the HeLa cells and incubated for 30 min at 37°C before washing three times with PBS. The interaction of fibril clusters with cells was monitored after 30 min incubation time on a Stellaris 8 confocal laser scanning microscope (Leica) equipped with a 20x air objective and laser excitation wavelengths of 405 nm (Hoechst), and 561 nm (Proteostat). For the evaluation of aggregate degradation, the samples were further incubated at 37°C for 3 d and analyzed without any additional washing step. The evaluation of aggregate size and number was conducted by analyzing Proteostat stained aggregates via the 3D objects counter function of ImageJ 1.53f51 for 3 individual measurements (area 1008 µm × 1008 µm). […] The number of aggregates were determined by counting aggregates larger than the threshold 10 µm^2 in an area of 1008 µm × 1008 µm and repeated in three technical triplicates.
as §1, §2, §3, §4, §5, §6, §7
whether a PA is degraded or not, Proteostat stained PAs which are added to Hela cells (2 µg peptide added to 20.000 cells) and studied via confocal laser scanning microscopy. Microscopy is conducted at day 0 (d0, after 30 min of incubation) and at day 3 (d3, after 72 h of incubation). The number of aggregates >10 µm2 is counted via 3D object counter in ImageJ in an area of 1008 µm × 1008 µm.
A PA is considered as degradable if the number and the size of aggregates are reduced after 3 days.
The efficiency is determined by the percentual degradation (aggregate number at d3 / aggregate number at d0). Three technical replicates were evaluated for each sample. A large deviation in number and size of aggregates represents a nonhomogeneous distribution and polymorphism of aggregates.

[3] = test system: HIV-1 infection of TZM-bl cells; experiment: HIV-1 infection assay (β-galactosidase luminescence reporter); type: cell-based; settings: infectivity enhancing if n-fold at 1.3 µM larger than 2
Procedure: HIV‐1 Infection Assay: The effect of peptide fibrils on HIV‐1 infection was studied via a luminescence assay for β‐galactosidase, which was reported by TZM‐bl cells upon infection. 10000 TZM‐bl cells were seeded in 180 µl supplemented DMEM one day prior infection. The cells were inoculated with 20 µl PNF solution 1:1 (v/v) mixed with virus (1:500 dilution) after an incubation time of 10 min. The HIV‐1 infection assay was conducted in three technical replicates and repeated in three independent experiments unless stated otherwise. The assay was conducted as described before.^[ [20] ^]

Row | Molecule | formation of µm-sized aggregates (in words) [1] | degradability by cells (in words) [2] | degradability (percentual degradation by aggregate number) [2] [%] | infectivity enhancement of HIV-1 (in words) [3]
1 | CCCCCCCCCCCCCCCC(=O)N[C@@H](C)C(=O)N[C@H](C(=O)N[C@@H](C)C(=O)N[C@@H](CCCCN)C(=O)N[C@@H](CCCCN)C(=O)N[C@@H](CCCCN)C(N)=O)C(C)C [C16-AVAKKK-NH2] (Palmitoyl-AVAKKK-NH2) | not forming µm-sized aggregates and forming too few/less aggregates, respectively | – | – | –
2 | CCCCCCCCCCCCCCCC(=O)N[C@@H](CCCCN)C(=O)N[C@@H](Cc1ccc(O)cc1)C(=O)N[C@H](C(=O)N[C@@H](Cc1c[nH]cn1)C(=O)N[C@@H](CCC(N)=O)C(=O)N[C@@H](CC(N)=O)C(=O)N[C@@H](Cc1ccc(O)cc1)C(=O)N[C@H](C(=O)N[C@@H](CCCCN)C(=O)N[C@@H](C)C(=O)N[C@@H](CC(C)C)C(=O)N[C@@H](C)C(=O)NCC(=O)N[C@@H](CCCCN)C(=O)N[C@@H](CC(C)C)C(=O)N[C@H](C(N)=O)C(C)C)[C@@H](C)O)[C@@H](C)CC (Palmitoyl-KYIHQNYTKALAGKLV-NH2) | very large aggregates | degraded incompletely | – | –
3 | CCCCCCCCCCCCCCCC(=O)N[C@@H](CC(C)C)C(=O)N[C@@H](CC(N)=O)C(=O)NCC(=O)NCC(=O)N[C@H](C(=O)N[C@@H](CCCCN)C(=O)N[C@@H](CCCCN)C(N)=O)C(C)C [C16-LNGGVKK-NH2] (Palmitoyl-LNGGVKK-NH2) | – | – | 48 | –
4 | CCCCCCCCCCCCCCCC(=O)NCC(=O)NCC(=O)N[C@H](C(=O)N[C@H](C(=O)N[C@@H](CCCNC(=N)N)C(=O)N[C@@H](CCCNC(=N)N)C(N)=O)C(C)C)C(C)C [C16-GGVVRR-NH2] (Palmitoyl-GGVVRR-NH2) | not forming µm-sized aggregates and forming too few/less aggregates, respectively; also recorded: cannot form µm‐sized aggregates | – | – | Inactive
5 | CCCCCCCCCCCCCCCC(=O)N[C@@H](CCCNC(=N)N)C(=O)N[C@@H](CCCNC(=N)N)C(=O)N[C@@H](Cc1c[nH]c2ccccc12)C(=O)N[C@@H](CCC(N)=O)C(=O)N[C@@H](Cc1c[nH]c2ccccc12)C(=O)N[C@@H](CCCNC(=N)N)C(N)=O [C16-RRWQWR-NH2] (Palmitoyl-RRWQWR-NH2) | not forming µm-sized aggregates and forming too few/less aggregates, respectively; also recorded: cannot form µm‐sized aggregates | – | – | Inactive
6 | CCCCCCCCCCCCCCCC(=O)N[C@@H](CCCCN)C(=O)N[C@H](C(=O)N[C@H](C(=O)N[C@@H](CO)C(=O)N[C@@H](Cc1ccccc1)C(=O)N[C@@H](CCCCN)C(N)=O)[C@@H](C)CC)[C@@H](C)CC [C16-KIISFK-NH2] (Palmitoyl-KIISFK-NH2) | very large aggregates | degraded incompletely | – | –
7 | C16‐thioester‐CVVVAAAKKK‐NH2 [PA1 variant with thioester linker] | small, well distributed aggregates | – | 87 | –
8 | CCCCCCCCCCCCCCCC(=O)N[C@@H](CC(N)=O)C(=O)N[C@@H](Cc1ccccc1)C(=O)N[C@@H](Cc1ccc(O)cc1)C(=O)N[C@@H](CC(C)C)C(=O)N[C@@H](CCC(N)=O)C(=O)N[C@H](C(=O)N[C@@H](CC(N)=O)C(=O)N[C@@H](CCCCN)C(=O)N[C@H](C(=O)N[C@@H](CC(N)=O)C(=O)N[C@@H](CCCCN)C(N)=O)[C@@H](C)CC)C(C)C (Palmitoyl-NFYLQVNKINK-NH2) | very large aggregates | degraded incompletely | – | –
9 | CCCCCCCCCCCCCCCC(=O)N[C@@H](C)C(=O)N[C@@H](CCCCN)C(=O)N[C@@H](C)C(=O)N[C@H](C(=O)NCC(=O)N[C@@H](CCCCN)C(N)=O)C(C)C [C16-AKAVGK-NH2] (Palmitoyl-AKAVGK-NH2) | – | – | 89 | –
10 | C16-AQAKAK [library peptide amphiphile, palmitic acid at the N-terminus] | very large aggregates | degraded incompletely | – | –
11 | CCCCCCCCCCCCCCCC(=O)N[C@H](C(=O)N[C@H](C(=O)N[C@@H](C)C(=O)N[C@@H](C)C(=O)N[C@@H](Cc1c[nH]cn1)C(=O)N[C@@H](Cc1c[nH]cn1)C(=O)N[C@@H](Cc1c[nH]cn1)C(N)=O)C(C)C)C(C)C [C16-VVAAHHH-NH2] (Palmitoyl-VVAAHHH-NH2) | very large aggregates | increase in size, decrease in number | – | –
12 | NFYLQVNKINK-NH2 | – | no good degradability | – | –
13 | CCCCCCCCC(=O)N[C@H](C(=O)N[C@H](C(=O)N[C@H](C(=O)N[C@@H](C)C(=O)N[C@@H](C)C(=O)N[C@@H](C)C(=O)N[C@@H](CCCCN)C(=O)N[C@@H](CCCCN)C(=O)N[C@@H](CCCCN)C(N)=O)C(C)C)C(C)C)C(C)C [C9] (Nonanoyl-VVVAAAKKK-NH2) | – | reduced in number of aggregates, but increases in size | – | –
14 | CCCCCCCCCCCCCCCC(=O)N[C@@H](C)C(=O)N[C@@H](CC(C)C)C(=O)N[C@@H](C)C(=O)N[C@@H](C)C(=O)NCC(=O)N[C@@H](CCCCN)C(=O)N[C@@H](CCCCN)C(N)=O [C16-ALAAGKK-NH2] (Palmitoyl-ALAAGKK-NH2) | – | – | 87 | –
15 | CCCCCCCCCCCCCCCC(=O)N[C@@H](C)C(=O)N[C@@H](C)C(=O)N[C@H](C(=O)N[C@H](C(=O)N[C@@H](Cc1c[nH]cn1)C(=O)N[C@@H](Cc1c[nH]cn1)C(=O)N[C@@H](CCCCN)C(N)=O)C(C)C)C(C)C [C16-AAVVHHK-NH2] (Palmitoyl-AAVVHHK-NH2) | very large aggregates | degraded incompletely | – | –
16 | CCCCCCCCCCCCCCCC(=O)OC[C@H](N)C(=O)N[C@H](C(=O)N[C@H](C(=O)N[C@H](C(=O)N[C@@H](C)C(=O)N[C@@H](C)C(=O)N[C@@H](C)C(=O)N[C@@H](CCCCN)C(=O)N[C@@H](CCCCN)C(=O)N[C@@H](CCCCN)C(N)=O)C(C)C)C(C)C)C(C)C (H-S(Palmitoyl)VVVAAAKKK-NH2) | – | degraded well | – | –
